From patent US8343490B2, “Monoclonal antibody SC104 and derivative thereof specifically binding to a sialyltetraosyl carbohydrate as a potential anti-tumor therapeutic agent” (Cephalon Australia Pty Ltd, priority 2004, dated 2013)
Read-outs that look alike come from different tables or passages of the source.

Legend:
C170 xenografts [1] = assay type: in vivo
Protocol: (§1) Prevention model. The colorectal tumour cell line, C170 was maintained in serial passage in nude mice. For therapy the mice were sacrificed and the tumours excised. The tumour was finely minced and […] pieces were implanted, under anaesthetic, subcutaneously into 30 male mice which had been randomly allocated to 4 experimental groups.
Mice were explanted with 3 mm^3 pieces of C170 xenografts. Groups of mice were treated with 5-FU/leucovorin (12.5 mg/Kg) by intravenous infusion on days 1, 3, 5, 7 and 28. On the same days mice were also injected intraperitonealy with 0.2 mg of SC104 mab. Control mice received either SC104 alone or control mouse IgG antibody with 5-FU/leucovorin. Tumour size was measured by callipers and tumour cross sectional area calculated on days 7, 9, 12, 14 and 16. Animals were weighed to assess the toxicity of treatment. At the termination of the experiment tumours were weighed to assess anti-tumour efficacy.

C170 cells = test: In vitro inhibition of cell growth in combination with cytotoxic drugs, MTS; assay type: cell-based; details: 5 days, FIG. 25
Protocol: 1×10^3 colorectal C170 cells were aliquoted into individual wells of a flat bottomed 96-well plate and left to adhere overnight at 37° C. The following day the cells were treated with cisplatin, mitomycin C, oxaliplatin and tamoxifen at final concentrations of 10, 3, 1, 0.3, 0.1 and 0 μM. Against each concentration of drug the following concentrations of SC104 were titrated: 10, 3, 1, 0.3 and 0 μg/ml. As a negative control 791T/36 at concentrations 100, 30, 10, 3 and 0 μg/ml, was titrated against each concentration of drug used. Duplicate wells were used. Cells were left for 5 days at 37° C. prior to the addition of MTS reagent to each well and optical density reading at 490 nm.

C170 xenografts [2] = test: C170 xenograft therapeutic model; assay type: in vivo, nude mice; details: administered therapeutically, after C170 xenograft implantation; FIG. 27
Protocol: as §1, with “Therapeutic” for “Prevention”
Mice were explanted with 3 mm^3 pieces of C170 xenografts. […] On the same days mice were also injected intraperitonealy with 0.2 mg of SC104 mab. Control mice received either SC104 alone or control mouse IgG antibody with 5FU/leucovorin. Tumour size was measured by callipers and tumour cross sectional area calculated on days 12, 16, 19 and 23.

C170 xenografts [3] = assay type: in vivo; details: day 6

5-FU/leucovorin [reference compound] was tested, and the “inhibition of tumour growth of freshly explanted tumours” value (C170 xenografts [1]; SC104 200 μg/dose ip, 5-FU/leucovorin at maximum tolerated dose, FIG. 26a) was 50%.
For `O=c1[nH]cc(F)c(=O)[nH]1` [5-FU, 5-Fluorouracil, reference compound], the “additive killing in combination with SC104” value (shortened to “additive killing … with SC104”) (C170 cells) was “additive killing”, the survival of mice (C170 xenografts [1]; Log Rank, FIG. 26b) was “significant improvement of survival” and the “inhibition of tumour growth” value (C170 xenografts [1]; day 9) was 40%. The “inhibition of tumour growth” value (C170 xenografts [1]; day 12) was 45%, the “inhibition of tumour growth” value (C170 xenografts [1]; day 14) was 58% and the “inhibition of tumour growth” value (C170 xenografts [2]) was “neither 5FU nor SC104 alone significantly inhibited growth”. The “inhibition of tumour growth” value (C170 xenografts [3]) was 62%.
For `N.N.[Cl][Pt][Cl]` [cisplatin], the “additive killing … with SC104” value (C170 cells) was “additive killing”.
`CO[C@@]12[C@H](COC(N)=O)C3=C(C(=O)C(C)=C(N)C3=O)N1C[C@@H]1N[C@@H]12` [mitomycin C, Mitomycin C] was tested, and the “additive killing … with SC104” value (C170 cells) was “additive killing”.
In the case of `O=C1[O][Pt]2([NH][C@@H]3CCCC[C@H]3[NH]2)[O]C1=O` [oxaliplatin], the “additive killing … with SC104” value (C170 cells) is reported as “No additive effect”.
For `CC/C(=C(\c1ccccc1)c1ccc(OCCN(C)C)cc1)c1ccccc1` [tamoxifen], the “additive killing … with SC104” value (C170 cells) was “additive killing”.
